The values that follow come from US20220387633A1, “SMART PEPTIDES AND TRANSFORMABLE NANOPARTICLES FOR CANCER IMMUNOTHERAPY” (The Regents of the University of California, priority 2019, published 2022).

The test system of one assay is 4T1 tumour cells. Put plainly: Flow cytometry binding of LXY30 to 4T1 cells. To be noted: 1 μM biotinylated LXY30. On the set-up: species or system murine. As to the method:
Experiments were repeated three times. 3×10^5 cells incubated with 1 μM biotinylated LXY30 for 30 min on ice, after washing with PBS followed by incubation with 1:500 streptavidin-PE (1 mg/mL) for 30 min, then run with flow cytometry.

Assay [1] deals with T1, HER2 receptor on the surface of HER2+ breast cancer cells (MCF-7/C6, SKBR-3, BT474) (human, UniProt P04626 23-1255).
T1 construct: whole, on cells; Endogenous HER2 on cell lines; MCF-7/C6 is derived from the human breast cancer line MCF-7 by fractionated irradiation; also called cell surface HER2; HER2 receptors of MCF-7/C6 cells
Put plainly: confocal microscopy on MCF-7/C6 cells, 8 h.

Bridge positions count the residues as written; N and C are the ends. Square brackets hold non-standard residues; d marks the D form. Ends that are not written are not given here. Phe(3,5-F2) = N[C@@H](Cc1cc(F)cc(F)c1)C(=O)O; Hyp = O=C(O)[C@@H]1C[C@@H](O)CN1; BP = bis-pyrene

As to “cdG-Phe(3,5-diF)-G-Hyp-NcR ([dC][dD]G[Phe(3,5-F2)]G[Hyp]N[dC]R; also: cyclic peptide, ring type and places not given here) [LXY30]”, the “binding to 4T1 tumour cells” value in the assay on 4T1 tumour cells is recorded as “did bind”.

B1: NPs2, nanoparticles self-assembled from transformable peptide monomer 2 (TPM2′) BP-GGAAK-YCDGFYACYMDV (peptide)
peptide: {BP}-GGAAKYCDGFYACYMDV
modifications: disulfide 7-13 (inferred)
notes: Negative control with the HER2 ligand but without the beta-sheet forming peptide; Tested as nanoparticles of about 30 nm
For B1, the binding result in assay [1] is given as “binds”.
